US12624127B2, “Chitosan derivatives as antimicrobials and synergistic combinations thereof” (priority 2022, dated 2026)

Legend:
[1] = test system: MRSA USA300; experiment: Checkerboard synergy assay of 2,6-DAC with antibiotics; type: cell-based; conditions: for MIC, antibiotic in combination: antibiotic concentration in combination with 2,6-DAC
Experimental: (§1) 2,6-DAC was screened as a potentiating agent for synergistic combinations with antibiotics against both A. baumannii AB-1 and MRSA USA300. Before the synergy tests, the MIC values of antibiotics were tested against MDR A. baumannii AB-1 and MRSA USA300 by following the MIC determination protocol in Example 4. Then, the synergy of 2,6-DAC with antibiotics was determined.
(§2) Synergy was measured by time killing assay and checkerboard assay. Time killing assay was performed by following the protocol in Example 4. Checkerboard susceptibility assays to measure combinations of antimicrobials were performed in MHB at 37° C. as previously described (K. R. V. Thappeta et al., ACS Infect. Dis. 2020, 6, 1228-1237; and Z. Si et al., Angew. Chem. Int. Ed. 2020, 59, 6819-6826). The fractional inhibitory concentration (FIC) indices were calculated according to the following formula: […]

[2] = test system: MRSA; experiment: MIC determination, broth micro dilution; type: cell-based; conditions: MRSA USA300; for MIC: Staphylococcus aureus, read-out: MIC of antibiotic alone / without 2,6-DAC
Experimental: (§3) MIC values were determined using a broth micro dilution method. Bacteria cells were grown overnight at 37° C. in MHB to a mid-log phase (OD600 between 0.4-0.5 for each organism) and diluted in MHB to 10^5 CFU/mL. […] 50 μL of the 1-5×10^5 CFU/mL bacterial cultures (final concentration) was aliquoted into 96-well microtiter plates and mixed with 50 μL of two-fold dilutions of the polymer or antibiotics and incubated for 16-18 h at 37° C. with shaking at 200 rpm.
as §1

[3] = test system: A. baumannii AB-1; experiment: Checkerboard synergy assay of 2,6-DAC with antibiotics; type: cell-based, Acinetobacter baumannii; conditions: for MIC of antibiotic +16 μg/mL 2,6-DAC / MIC of antibiotic +32 μg/mL 2,6-DAC: A. baumannii AB-1 (MDR); for Synergy with 2,6-DAC (in words) / MIC, antibiotic in combination: A. baumannii AB-1; for MIC, antibiotic in combination: antibiotic concentration in combination with 2,6-DAC (8 μg/mL)
Experimental: as §1, §2

[4] = test system: A. baumannii; experiment: MIC determination, broth micro dilution; type: cell-based, Acinetobacter baumannii; conditions: A. baumannii AB-1, antibiotic alone; for MIC: Acinetobacter baumannii, read-out: MIC of antibiotic without 2,6-DAC
Experimental: as §3, §1

[5] = test system: A. baumannii AB-1; experiment: Time killing assay; type: cell-based, Acinetobacter baumannii; conditions: for Killing of bacteria by single agent (in words): sub-inhibitory concentration, alone, 24 h
Experimental: The plates were sealed and incubated at 37° C. with shaking at 200 rpm.
At 0, 0.5, 1, 2, 3, 5, and 24 h post-inoculation, each well was thoroughly mixed with a multi-channel pipette and 20 μL of sample was removed, serially diluted in sterile PBS, plated on LB agar plates, and incubated at 37° C. for 12 h. Colonies were counted to determine the CFU/mL at each time point.
as §2

Compound: CCN1CCN(C(=O)N[C@@H](C(=O)N[C@@H]2C(=O)N3[C@@H]2SC(C)(C)[C@@H]3C(=O)O)c2ccccc2)C(=O)C1=O [Piperacillin]
- Synergy with 2,6-DAC (in words) [1]: no synergy
- MIC [2]: 4 µg/mL

Compound: CC1(C)S[C@@H]2[C@H](NC(=O)[C@H](N)c3ccc(O)cc3)C(=O)N2[C@H]1C(=O)O [Amoxicillin]
- MIC of antibiotic +16 μg/mL 2,6-DAC [3]: 128 µg/mL
- MIC of antibiotic +32 μg/mL 2,6-DAC [3]: 16 µg/mL
- MIC [4]: > 128 µg/mL

Compound: Colistin
- Synergy with 2,6-DAC (in words) [1]: no synergy
- MIC of antibiotic alone / without 2,6-DAC [2]: 50 µg/mL

Compound: NC[C@H]1O[C@H](O[C@H]2[C@H](O)[C@@H](O[C@H]3O[C@H](CO)[C@@H](O)[C@H](N)[C@H]3O)[C@H](N)C[C@@H]2N)[C@H](N)C[C@@H]1O [Tobramycin]
- MIC, antibiotic in combination [1]: 0.25 µg/mL
- Synergy with 2,6-DAC (in words) [3]: synergistic activity
- MIC, antibiotic in combination [3]: 2 µg/mL
- MIC of antibiotic without 2,6-DAC [4]: >128 µg/mL
- MIC [4]: > 128 µg/mL
- Reduction, combination with 2,6-DAC ([5]; 2,6-DAC 0.5×MIC + tobramycin 0.002×MIC): 2 log10
- Killing of bacteria by single agent (in words) [5]: no killing of bacteria
- MIC [2]: 1 µg/mL

Compound: C[C@@H](O)[C@H]1C(=O)N2C(C(=O)O)=C(S[C@@H]3CN[C@H](C(=O)Nc4cccc(C(=O)O)c4)C3)[C@H](C)[C@H]12 [Ertapenem]
- MIC of antibiotic +16 μg/mL 2,6-DAC [3]: 4 µg/mL
- MIC of antibiotic +32 μg/mL 2,6-DAC [3]: 2 µg/mL
- MIC [4]: > 128 µg/mL

Compound: COc1cc(Cc2cnc(N)nc2N)cc(OC)c1OC [Trimethoprim]
- Synergy with 2,6-DAC (in words) [1]: no synergy

Compound: NCC[C@H](O)C(=O)N[C@@H]1C[C@H](N)[C@@H](O[C@H]2O[C@H](CN)[C@@H](O)[C@H](O)[C@H]2O)[C@H](O)[C@H]1O[C@H]1O[C@H](CO)[C@@H](O)[C@H](N)[C@H]1O [Amikacin]
- Synergy with 2,6-DAC (in words) [1]: no synergy
- Synergy with 2,6-DAC (in words) [3]: synergistic activity
- MIC, antibiotic in combination [3]: 2 µg/mL
- MIC of antibiotic without 2,6-DAC [4]: >128 µg/mL
- MIC [4]: > 128 µg/mL
- Bactericidal efficacy, combination with 2,6-DAC ([5]; 2,6-DAC 0.5×MIC + amikacin 0.002×MIC): 4 log10
- Killing of bacteria by single agent (in words) [5]: no killing of bacteria
- MIC [2]: 1.56 µg/mL

Compound: CC[C@H]1OC(=O)[C@H](C)[C@@H](O[C@H]2C[C@@](C)(OC)[C@@H](O)[C@H](C)O2)[C@H](C)[C@@H](O[C@@H]2O[C@H](C)C[C@H](N(C)C)[C@H]2O)[C@](C)(O)C[C@@H](C)CN(C)[C@H](C)[C@@H](O)[C@]1(C)O [Azithromycin]
- MIC of antibiotic +16 μg/mL 2,6-DAC [3]: 64 µg/mL
- MIC of antibiotic +32 μg/mL 2,6-DAC [3]: 1 µg/mL
- MIC [4]: 128 µg/mL

Compound: Ramoplanin
- MIC of antibiotic +16 μg/mL 2,6-DAC [3]: 128 µg/mL
- MIC of antibiotic +32 μg/mL 2,6-DAC [3]: 2 µg/mL
- MIC of antibiotic without 2,6-DAC [4]: >128 µg/mL

Compound: CO/N=C(\C(=O)N[C@@H]1C(=O)N2C(C(=O)O)=C(CSc3nc(=O)c(=O)[nH]n3C)CS[C@H]12)c1csc(N)n1 [Ceftriaxone]
- Synergy with 2,6-DAC (in words) [1]: no synergy
- MIC of antibiotic +16 μg/mL 2,6-DAC [3]: 128 µg/mL
- MIC of antibiotic +32 μg/mL 2,6-DAC [3]: 2 µg/mL
- MIC [4]: > 128 µg/mL
- MIC [2]: 16 µg/mL

Compound: Polymyxin B
- Synergy with 2,6-DAC (in words) [1]: no synergy
- MIC of antibiotic alone / without 2,6-DAC [2]: 32 µg/mL

Compound: CC1(C)S[C@@H]2[C@H](NC(=O)C(C(=O)O)c3ccccc3)C(=O)N2[C@H]1C(=O)O (stereo partly drawn) [Carbenicillin]
- MIC, antibiotic in combination [1]: 2 µg/mL
- MIC [2]: 8 µg/mL

Compound: C[C@@H](O)[C@H]1C(=O)N2C(C(=O)O)=C(S[C@@H]3CN[C@H](C(=O)N(C)C)C3)[C@H](C)[C@H]12 [Meropenem]
- MIC, antibiotic in combination [1]: 0.5 µg/mL
- MIC of antibiotic +16 μg/mL 2,6-DAC [3]: 4 µg/mL
- MIC of antibiotic +32 μg/mL 2,6-DAC [3]: 1 µg/mL
- MIC [4]: 64 µg/mL
- MIC [2]: 1 µg/mL

Compound: O=C(N[C@H](CO)[C@H](O)c1ccc([N+](=O)[O-])cc1)C(Cl)Cl [Chloramphenicol]
- Synergy with 2,6-DAC (in words) [1]: no synergy
- MIC [2]: 4 µg/mL

Compound: CC[C@H]1OC(=O)[C@H](C)[C@@H](O[C@H]2C[C@@](C)(OC)[C@@H](O)[C@H](C)O2)[C@H](C)[C@@H](O[C@@H]2O[C@H](C)C[C@H](N(C)C)[C@H]2O)[C@](C)(O)C[C@@H](C)C(=O)[C@H](C)[C@@H](O)[C@]1(C)O [Erythromycin]
- MIC of antibiotic +16 μg/mL 2,6-DAC [3]: 64 µg/mL
- MIC of antibiotic +32 μg/mL 2,6-DAC [3]: 4 µg/mL
- MIC [4]: > 128 µg/mL

Compound: CC1(C)S[C@@H]2[C@H](NC(=O)[C@H](N)c3ccccc3)C(=O)N2[C@H]1C(=O)O [Ampicillin]
- MIC, antibiotic in combination [1]: 2 µg/mL
- MIC [2]: 4 µg/mL

Compound: C[C@H]1COc2c(N3CCN(C)CC3)c(F)cc3c(=O)c(C(=O)O)cn1c23 [Levofloxacin]
- MIC of antibiotic +16 μg/mL 2,6-DAC [3]: 2 µg/mL
- MIC of antibiotic +32 μg/mL 2,6-DAC [3]: ≤1 µg/mL
- MIC [4]: 4 µg/mL

Compound: CC(C)(O/N=C(\C(=O)N[C@@H]1C(=O)N2C(C(=O)[O-])=C(C[n+]3ccccc3)CS[C@H]12)c1csc(N)n1)C(=O)O [Ceftazidime]
- Synergy with 2,6-DAC (in words) [1]: no synergy
- MIC of antibiotic +16 μg/mL 2,6-DAC [3]: 128 µg/mL
- MIC of antibiotic +32 μg/mL 2,6-DAC [3]: 2 µg/mL
- MIC [4]: > 128 µg/mL
- MIC [2]: 16 µg/mL

Compound: CC(=O)OCC1=C(C(=O)O)N2C(=O)[C@@H](NC(=O)Cc3cccs3)[C@H]2SC1 [Cephalothins]
- MIC of antibiotic +16 μg/mL 2,6-DAC [3]: 128 µg/mL
- MIC of antibiotic +32 μg/mL 2,6-DAC [3]: 2 µg/mL
- MIC of antibiotic without 2,6-DAC [4]: >128 µg/mL

Compound: C[C@]1(Cn2ccnn2)[C@H](C(=O)O)N2C(=O)C[C@H]2S1(=O)=O [Tazobactam]
- Synergy with 2,6-DAC (in words) [3]: synergistic activity
- MIC, antibiotic in combination [3]: 16 µg/mL
- MIC [4]: 64 µg/mL
- Bactericidal efficacy, combination with 2,6-DAC ([5]; 2,6-DAC 0.5×MIC + tazobactam 0.06×MIC): 4 log10
- Killing of bacteria by single agent (in words) [5]: no killing of bacteria

Compound: CC1COc2c(N3CCN(C)CC3)c(F)cc3c(=O)c(C(=O)O)cn1c23 (stereo not drawn) [Ofloxacin]
- MIC of antibiotic +16 μg/mL 2,6-DAC [3]: 8 µg/mL
- MIC of antibiotic +32 μg/mL 2,6-DAC [3]: 4 µg/mL
- MIC [4]: 8 µg/mL

Compound: C[C@@H](O)[C@H]1C(=O)N2C(C(=O)O)=C(SCCN=CN)C[C@H]12 [Imipenem]
- MIC of antibiotic +16 μg/mL 2,6-DAC [3]: 8 µg/mL
- MIC of antibiotic +32 μg/mL 2,6-DAC [3]: 1 µg/mL
- MIC [4]: 64 µg/mL

Compound: C[C@@H](O)[C@H]1C(=O)N2C(C(=O)O)=C(S[C@@H]3CN[C@H](CNS(N)(=O)=O)C3)[C@H](C)[C@H]12 [Doripenem]
- MIC of antibiotic +16 μg/mL 2,6-DAC [3]: 4 µg/mL
- MIC of antibiotic +32 μg/mL 2,6-DAC [3]: ≤2 µg/mL
- MIC [4]: 32 µg/mL

Compound: CO[C@@]1(NC(=O)Cc2cccs2)C(=O)N2C(C(=O)O)=C(COC(N)=O)CS[C@@H]21 [Cefoxitin]
- MIC of antibiotic +16 μg/mL 2,6-DAC [3]: 128 µg/mL
- MIC of antibiotic +32 μg/mL 2,6-DAC [3]: 8 µg/mL
- MIC [4]: > 128 µg/mL

Compound: O=C(O)c1cn(C2CC2)c2cc(N3CCNCC3)c(F)cc2c1=O [Ciprofloxacin]
- Synergy with 2,6-DAC (in words) [1]: no synergy
- MIC [2]: 8 µg/mL
